# In patent US20070172957A1, “Methods of identifying anti-inflammatory macrolides” (TAISHO PHARMACEUTICAL CO., LTD., priority 2004, published 2007):
# Tested on: A549 cells
# Assay: A549 microarray comparing macrolides with arachidonic acid pathway inhibitors, with IL-1β stimulation (Appendix C, Tables 6-9), and correlation analysis
# Type: cell-based
# From the text: One inhibitor, triacsin C, acts on AA biosynthesis by inhibiting arachidonyl CoA synthetases, blocking the incorporation of free AA into phospholipids. Triacsin C is reasonably specific for AA compared to other fatty acids. However, triacsin C structurally resembles AA so it also may interfere with other steps in the AA pathway. Indomethacin is an inhibitor of COX1 and COX2 enzyme activities and therefore specifically blocks metabolism of AA into prostaglandins. […] It inhibits transcription of PLA2, and transcriptionally and post-transcriptionally regulates COX1 and COX2 activities. Dexamethasone has additional effects unrelated to AA through binding with the glucocorticoid receptor to glucocortcoid response elements.
# A549 cells were pre-incubated overnight (17 hours) with macrolides (10 μM FMA-9045, 50 μM clarithromycin, 50 μM roxithromycin, 50 μM josamycin) and 15 μM triacsin C, and pre-incubated 2 hours with 100 nM indomethacin and 100 nM dexamethasone. All cells then were stimulated for 4 hours with IL-1β, because the activation of PLA2 and downstream signaling events generally requires an inflammatory stimulus. The various treatment conditions are shown below in Table 4. Following macrolide and inhibitor pre-treatment and IL-1 stimulation, the cells were lysed, total RNA was collected, and the poly-A+ mRNA fraction was purified. The resulting microarray data (Appendix C) were analyzed using the methods described in the Examples above.
# The tables in Appendix C represent the effects of the arachidonic acid pathway inhibitors (“AA pathway inhibitors”) and the effects of the macrolides (“IL1+macrolide effects”). […] In both tables in Appendix C, the genes that meet this criterion (≧1.3 min fold change) are indicated in bold.
# Quantitative analysis was done to determine how well the responses to the different AA pathway inhibitors correlated. The correlation values were assigned a p-value to provide statistical confidence to the correlation value. Correlation between experiments, across all spots showing good detection, was assessed by cosine vector angle to generate the data shown in Tables 7-9. A correlation coefficient close to one indicates strong correlation, whereas a value near zero indicates no correlation. P-values for each correlation coefficient were estimated based on a Fisher permutation test. In this test, each spot's expression ratios were randomly re-ordered across experiments and the degree of correlation between experiments was then reassessed. This was done repeatedly.
# [1] = A549 cells, +IL1b +/- inhibitor
compound,measurement,setting,value
C[C@@H]1C[C@H]2[C@@H]3CCC4=CC(=O)C=C[C@]4(C)[C@@]3(F)[C@@H](O)C[C@]2(C)[C@@]1(O)C(=O)CO [Dexa],"wtd means, SpotID 46796 STC1 (stanniocalcin 1)",[1],1.41
same,"wtd means, SpotID 46950 SERPINA3 (serine (or cysteine) proteinase inhibitor, clade A, member 3)",[1],1.39
same,"wtd means, SpotID 46985 RIPK2 (RIP2, RICK; receptor-interacting serine-threonine kinase 2)",[1],1.83
same,"wtd means, SpotID 47155 TNFAIP6 (tumor necrosis factor, alpha-induced protein 6)",[1],1.27
same,"wtd means, SpotID 47166 SERPINA6 (serine (or cysteine) proteinase inhibitor, clade A, member 6)",[1],1.33
same,"wtd means, SpotID 47444 TKT (transketolase (Wernicke-Korsakoff syndrome))",[1],0.83
same,"wtd means, SpotID 47569 STAT3 (signal transducer and activator of transcription 3)",[1],1.42
same,"wtd means, SpotID 47698 PTPRJ (protein tyrosine phosphatase, receptor type, J)",[1],1.38
same,"wtd means, SpotID 47987 THBS1 (thrombospondin 1)",[1],0.66
same,"wtd means, SpotID 48234 PTPRZ1 (PTP zeta; protein tyrosine phosphatase, receptor-type, Z polypeptide 1)",[1],1.00
same,"wtd means, SpotID 48239 TLN1 (talin 1)",[1],1.53
same,"wtd means, SpotID 48288 TRAF5 (TNF receptor-associated factor 5)",[1],1.42
same,"wtd means, SpotID 48359 RIPK1 (receptor (TNFRSF)-interacting serine-threonine kinase 1)",[1],1.61
same,"wtd means, SpotID 48392 RIPK1 (receptor (TNFRSF)-interacting serine-threonine kinase 1)",[1],1.62
same,"wtd means, SpotID 48395 TNFRSF7 (CD27; tumor necrosis factor receptor superfamily, member 7)",[1],1.53
same,"wtd means, SpotID 48485 UCP1 (uncoupling protein 1 (mitochondrial, proton carrier))",[1],1.00
same,"wtd means, SpotID 48500 RPL13A (ribosomal protein L13a)",[1],1.65
same,"wtd means, SpotID 48603 TEAD4 (TEA domain family member 4)",[1],1.67
same,"wtd means, SpotID 49330 TNFRSF7 (CD27; tumor necrosis factor receptor superfamily, member 7)",[1],1.76
same,"wtd means, SpotID 49899 WWOX (WW domain containing oxidoreductase)",[1],0.76
same,"wtd means, SpotID 49901 TROAP (trophinin associated protein (tastin))",[1],0.84
same,"wtd means, SpotID 50379 TNFRSF6 (FAS; tumor necrosis factor receptor superfamily, member 6)",[1],1.40
same,"wtd means, SpotID 50428 RPLP0 (ribosomal protein, large, P0)",[1],0.73
same,"wtd means, SpotID 50491 TNFRSF6B (DcR3; tumor necrosis factor receptor superfamily, member 6b, decoy)",[1],1.36
O=C(O)Cc1cc(I)c(Oc2ccc(O)c(I)c2)c(I)c1 [Triac],"min fold change, SpotID 46796 STC1 (stanniocalcin 1)",[1],1.00
same,"min fold change, SpotID 46950 SERPINA3 (serine (or cysteine) proteinase inhibitor, clade A, member 3)",[1],1.00
same,"min fold change, SpotID 46985 RIPK2 (RIP2, RICK; receptor-interacting serine-threonine kinase 2)",[1],1.43
same,"min fold change, SpotID 47155 TNFAIP6 (tumor necrosis factor, alpha-induced protein 6)",[1],1.02
same,"min fold change, SpotID 47166 SERPINA6 (serine (or cysteine) proteinase inhibitor, clade A, member 6)",[1],1.36
same,"min fold change, SpotID 47193 STAT3 (signal transducer and activator of transcription 3)",[1],1.32
same,"min fold change, SpotID 47332 SERPINB3 (serine (or cysteine) proteinase inhibitor, clade B (ovalbumin), member 3)",[1],1.06
same,"min fold change, SpotID 47444 TKT (transketolase (Wernicke-Korsakoff syndrome))",[1],1.16
same,"min fold change, SpotID 47569 STAT3 (signal transducer and activator of transcription 3)",[1],1.19
same,"min fold change, SpotID 47697 TNFRSF6B (DcR3; tumor necrosis factor receptor superfamily, member 6b, decoy)",[1],1.11
same,"min fold change, SpotID 47698 PTPRJ (protein tyrosine phosphatase, receptor type, J)",[1],1.11
same,"min fold change, SpotID 47987 THBS1 (thrombospondin 1)",[1],1.00
same,"min fold change, SpotID 48050 RPS6KA2 (ribosomal protein S6 kinase, 90 kD, polypeptide 2)",[1],1.12
same,"min fold change, SpotID 48234 PTPRZ1 (PTP zeta; protein tyrosine phosphatase, receptor-type, Z polypeptide 1)",[1],1.00
same,"min fold change, SpotID 48239 TLN1 (talin 1)",[1],1.34
same,"min fold change, SpotID 48288 TRAF5 (TNF receptor-associated factor 5)",[1],1.34
same,"min fold change, SpotID 48359 RIPK1 (receptor (TNFRSF)-interacting serine-threonine kinase 1)",[1],1.00
same,"min fold change, SpotID 48392 RIPK1 (receptor (TNFRSF)-interacting serine-threonine kinase 1)",[1],1.00
same,"min fold change, SpotID 48395 TNFRSF7 (CD27; tumor necrosis factor receptor superfamily, member 7)",[1],1.09
same,"min fold change, SpotID 48485 UCP1 (uncoupling protein 1 (mitochondrial, proton carrier))",[1],1.15
same,"min fold change, SpotID 48500 RPL13A (ribosomal protein L13a)",[1],1.25
same,"min fold change, SpotID 48594 RPS6KA2 (ribosomal protein S6 kinase, 90 kD, polypeptide 2)",[1],1.00
same,"min fold change, SpotID 48603 TEAD4 (TEA domain family member 4)",[1],1.38
same,"min fold change, SpotID 49330 TNFRSF7 (CD27; tumor necrosis factor receptor superfamily, member 7)",[1],1.51
same,"min fold change, SpotID 49899 WWOX (WW domain containing oxidoreductase)",[1],1.51
same,"min fold change, SpotID 49901 TROAP (trophinin associated protein (tastin))",[1],1.01
same,"min fold change, SpotID 50379 TNFRSF6 (FAS; tumor necrosis factor receptor superfamily, member 6)",[1],1.04
same,"min fold change, SpotID 50428 RPLP0 (ribosomal protein, large, P0)",[1],1.00
same,"min fold change, SpotID 50491 TNFRSF6B (DcR3; tumor necrosis factor receptor superfamily, member 6b, decoy)",[1],1.36
same,"wtd means, SpotID 46796 STC1 (stanniocalcin 1)",[1],1.05
same,"wtd means, SpotID 46950 SERPINA3 (serine (or cysteine) proteinase inhibitor, clade A, member 3)",[1],1.06
same,"wtd means, SpotID 46985 RIPK2 (RIP2, RICK; receptor-interacting serine-threonine kinase 2)",[1],1.70
same,"wtd means, SpotID 47155 TNFAIP6 (tumor necrosis factor, alpha-induced protein 6)",[1],1.08
same,"wtd means, SpotID 47166 SERPINA6 (serine (or cysteine) proteinase inhibitor, clade A, member 6)",[1],1.48
same,"wtd means, SpotID 47193 STAT3 (signal transducer and activator of transcription 3)",[1],1.47
same,"wtd means, SpotID 47332 SERPINB3 (serine (or cysteine) proteinase inhibitor, clade B (ovalbumin), member 3)",[1],1.22
same,"wtd means, SpotID 47444 TKT (transketolase (Wernicke-Korsakoff syndrome))",[1],0.76
same,"wtd means, SpotID 47569 STAT3 (signal transducer and activator of transcription 3)",[1],1.34
same,"wtd means, SpotID 47697 TNFRSF6B (DcR3; tumor necrosis factor receptor superfamily, member 6b, decoy)",[1],1.24
same,"wtd means, SpotID 47698 PTPRJ (protein tyrosine phosphatase, receptor type, J)",[1],1.17
same,"wtd means, SpotID 47987 THBS1 (thrombospondin 1)",[1],0.87
same,"wtd means, SpotID 48234 PTPRZ1 (PTP zeta; protein tyrosine phosphatase, receptor-type, Z polypeptide 1)",[1],1.00
same,"wtd means, SpotID 48239 TLN1 (talin 1)",[1],1.41
same,"wtd means, SpotID 48288 TRAF5 (TNF receptor-associated factor 5)",[1],1.60
same,"wtd means, SpotID 48359 RIPK1 (receptor (TNFRSF)-interacting serine-threonine kinase 1)",[1],1.27
same,"wtd means, SpotID 48392 RIPK1 (receptor (TNFRSF)-interacting serine-threonine kinase 1)",[1],1.08
same,"wtd means, SpotID 48395 TNFRSF7 (CD27; tumor necrosis factor receptor superfamily, member 7)",[1],1.50
same,"wtd means, SpotID 48485 UCP1 (uncoupling protein 1 (mitochondrial, proton carrier))",[1],1.59
same,"wtd means, SpotID 48500 RPL13A (ribosomal protein L13a)",[1],1.37
same,"wtd means, SpotID 48603 TEAD4 (TEA domain family member 4)",[1],1.65
same,"wtd means, SpotID 49330 TNFRSF7 (CD27; tumor necrosis factor receptor superfamily, member 7)",[1],1.73
same,"wtd means, SpotID 49899 WWOX (WW domain containing oxidoreductase)",[1],1.62
same,"wtd means, SpotID 49901 TROAP (trophinin associated protein (tastin))",[1],0.90
same,"wtd means, SpotID 50379 TNFRSF6 (FAS; tumor necrosis factor receptor superfamily, member 6)",[1],1.41
same,"wtd means, SpotID 50428 RPLP0 (ribosomal protein, large, P0)",[1],0.84
same,"wtd means, SpotID 50491 TNFRSF6B (DcR3; tumor necrosis factor receptor superfamily, member 6b, decoy)",[1],1.56
C[C@@H]1C[C@H]2[C@@H]3CCC4=CC(=O)C=C[C@]4(C)[C@@]3(F)[C@@H](O)C[C@]2(C)[C@@]1(O)C(=O)CO [dexamethasone],Total # Differential Genes (95% confidence),"A549, IL1 vs IL1 + drug, threshold 1.3, macrolides 50 μM (FMA 10 μM), triacsin C 15 μM, indomethacin and dexamethasone 100 nM",341
